Tests used:
HeLa [1] = test: MTS proliferation assay; format: cell-based, human; settings: 72 h
Method in brief: (§1)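 Cells were exposed for 72 h under culture conditions to test compounds at final concentrations of 10, 3, 1 and 0.3 μM, added in complete medium with at most 5% DMSO. MTS reagent was then added for a further 3 h, and absorbance was read at 492 nm.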

Jurkat [2] = test: MTS proliferation assay; format: cell-based, human; settings: 72 h
Method in brief: as §1

Jily = test: MTS proliferation assay; format: cell-based; settings: 72 h
Method in brief: as §1

MRC5 = test: MTS proliferation assay; format: cell-based; settings: MRC5, 72 h
Method in brief: as §1

HeLa [3] = test: PI staining for cell cycle distribution; format: cell-based, human; parameters: key: 0: no effect; 1: weak effect; 2: strong effect; settings: HeLa 10μM, 48 h
Protocol: (§2) 1-2*10^5 cells are seeded into 24 well tissue culture plates and incubated for 24 h prior to compound addition. […] Adherent cells are harvested by trypsinization. The cell suspensions are fixed by adding 2 parts ice cold ethanol 100% while vortexing. Then the samples are stored for>2 h at −20° C. Subsequently the cells are washed with PBS once and resuspended in 250 μl PBS containing 50 μg/ml PI (Calbiochem # 537059), then the samples are incubated at 37° C. for 30 min and subsequently analyzed on a FACSCalibur™ monitoring linear PI fluorescence activity on FL2. The readout allows the detection of a possible direct or indirect influence of the tested compounds on the cell cycle. The following events can occur: a) Generation of a subG1 peak indicative for DNA fragmentation, b) increase of the cell population arrested in G2M phase. Both events are scored by 1 for weak and 2 for strong occurrence. 0 indicates no occurrence at all.

Jurkat [4] = test: PI staining for cell cycle distribution; format: cell-based, human; parameters: key: 0: no effect; 1: weak effect; 2: strong effect; settings: Jurkat 3μM, 48 h
Protocol: as §2

[5] = Hoechst 33342 nuclear staining; format: cell-based; settings: for Hoechst 33342 nuclear staining score, H460: H460 cells; for Hoechst 33342 nuclear staining score, HeLa: HeLa cells; for Hoechst 33342 nuclear staining score, Jily: Jily cells; for Hoechst 33342 nuclear staining score, Jurkat: Jurkat cells; for Hoechst 33342 nuclear staining score, MRC5: MRC5 cells;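 as to all read-outs here: apoptotic nuclei scored 0 none 1 weak under 50% of cells 2 strong over 50% of cells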
Method in brief: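 Cells were plated in 96 well tissue culture plates in 80 μl complete medium, with 3-5*10^3 cells per well for adherent lines and 8-10*10^3 for suspension lines. Adherent cells spread for 24 h before treatment, while suspension cells were treated right after seeding. Compounds were added in 20 μl complete medium containing max 5% DMSO.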

[6] = conc 0.1 (final concentrations in μM), 24 h or 48 h incubation
[7] = conc 0.3 (final concentrations in μM), 24 h or 48 h incubation
[8] = conc 1 (final concentrations in μM), 24 h or 48 h incubation
[9] = conc 3 (final concentrations in μM), 24 h or 48 h incubation

COc1cc(-c2cc(CNc3ccc(-n4ccnc4)cc3)cn2S(=O)(=O)c2ccc(C)cc2)cc(OC)c1OC [Example 55]
IC50 (HeLa [1]): > 1000 nM
IC50 (Jurkat [2]): < 1000 nM
IC50 (Jily): > 1000 nM
IC50 (MRC5): < 1000 nM
PI staining for cell cycle distribution, G2M (HeLa [3]): 2
PI staining for cell cycle distribution, subG1 (HeLa [3]): 0
PI staining for cell cycle distribution, G2M (Jurkat [4]): 1
PI staining for cell cycle distribution, subG1 (Jurkat [4]): 0
Hoechst 33342 nuclear staining score, H460 [5, 6]: 0
Hoechst 33342 nuclear staining score, H460 [5, 7]: 0
Hoechst 33342 nuclear staining score, H460 [5, 8]: 0
Hoechst 33342 nuclear staining score, H460 [5, 9]: 2 (strong activity comprising more than 50% of the cells)
Hoechst 33342 nuclear staining score, HeLa [5, 6]: 0
Hoechst 33342 nuclear staining score, HeLa [5, 7]: 0
Hoechst 33342 nuclear staining score, HeLa [5, 8]: 1 (weak activity comprising less than 50% of the cells)
Hoechst 33342 nuclear staining score, HeLa [5, 9]: 2 (strong activity comprising more than 50% of the cells)
Hoechst 33342 nuclear staining score, Jily [5, 6]: 0
Hoechst 33342 nuclear staining score, Jily [5, 7]: 0
Hoechst 33342 nuclear staining score, Jily [5, 8]: 2 (strong activity comprising more than 50% of the cells)
Hoechst 33342 nuclear staining score, Jily [5, 9]: 2 (strong activity comprising more than 50% of the cells)
Hoechst 33342 nuclear staining score, Jurkat [5, 6]: 0
Hoechst 33342 nuclear staining score, Jurkat [5, 7]: 0
Hoechst 33342 nuclear staining score, Jurkat [5, 8]: 2 (strong activity comprising more than 50% of the cells)
Hoechst 33342 nuclear staining score, Jurkat [5, 9]: 2 (strong activity comprising more than 50% of the cells)
Hoechst 33342 nuclear staining score, MRC5 [5, 6]: 0
Hoechst 33342 nuclear staining score, MRC5 [5, 7]: 0
Hoechst 33342 nuclear staining score, MRC5 [5, 8]: 0
Hoechst 33342 nuclear staining score, MRC5 [5, 9]: 1 (weak activity comprising less than 50% of the cells)
Hoechst 33342 nuclear staining score, PBLs [5, 6]: 0
Hoechst 33342 nuclear staining score, PBLs [5, 7]: 0
Hoechst 33342 nuclear staining score, PBLs [5, 8]: 0
Hoechst 33342 nuclear staining score, PBLs [5, 9]: 0

p-(1-[p-Toluenesulfonyl]-2-[3,4,5-trimethoxyphenyl]-4-pyrrolyl)-benzamide [Example 6]
IC50 (HeLa [1]): < 1000 nM
IC50 (Jurkat [2]): < 200 nM
IC50 (MRC5): < 1000 nM
PI staining for cell cycle distribution, G2M (HeLa [3]): 2
PI staining for cell cycle distribution, subG1 (HeLa [3]): 0
PI staining for cell cycle distribution, G2M (Jurkat [4]): 1
PI staining for cell cycle distribution, subG1 (Jurkat [4]): 0

COc1cc(-c2cc(-c3cccnc3)cn2S(=O)(=O)c2ccc([N+](=O)[O-])cc2)cc(OC)c1OC [Example 92]
IC50 (HeLa [1]): > 1000 nM
IC50 (Jurkat [2]): > 1000 nM
IC50 (Jily): > 1000 nM
IC50 (MRC5): > 1000 nM
Hoechst 33342 nuclear staining score, H460 ([5]; conc 0.1): 0
Hoechst 33342 nuclear staining score, H460 ([5]; conc 0.3): 0
Hoechst 33342 nuclear staining score, H460 ([5]; conc 1): 0
Hoechst 33342 nuclear staining score, H460 ([5]; conc 3): 1 (weak activity comprising less than 50% of the cells)
Hoechst 33342 nuclear staining score, HeLa ([5]; conc 0.1): 0
Hoechst 33342 nuclear staining score, HeLa ([5]; conc 0.3): 0
Hoechst 33342 nuclear staining score, HeLa ([5]; conc 1): 0
Hoechst 33342 nuclear staining score, HeLa ([5]; conc 3): 0
Hoechst 33342 nuclear staining score, Jily ([5]; conc 0.1): 0
Hoechst 33342 nuclear staining score, Jily ([5]; conc 0.3): 0
Hoechst 33342 nuclear staining score, Jily ([5]; conc 1): 0
Hoechst 33342 nuclear staining score, Jily ([5]; conc 3): 2 (strong activity comprising more than 50% of the cells)
Hoechst 33342 nuclear staining score, Jurkat ([5]; conc 0.1): 0
Hoechst 33342 nuclear staining score, Jurkat ([5]; conc 0.3): 0
Hoechst 33342 nuclear staining score, Jurkat ([5]; conc 1): 0
Hoechst 33342 nuclear staining score, Jurkat ([5]; conc 3): 2 (strong activity comprising more than 50% of the cells)
Hoechst 33342 nuclear staining score, MRC5 ([5]; conc 0.1): 0
Hoechst 33342 nuclear staining score, MRC5 ([5]; conc 0.3): 0
Hoechst 33342 nuclear staining score, MRC5 ([5]; conc 1): 0
Hoechst 33342 nuclear staining score, MRC5 ([5]; conc 3): 0
Hoechst 33342 nuclear staining score, PBLs ([5]; conc 0.1): 0
Hoechst 33342 nuclear staining score, PBLs ([5]; conc 0.3): 0
Hoechst 33342 nuclear staining score, PBLs ([5]; conc 1): 0
Hoechst 33342 nuclear staining score, PBLs ([5]; conc 3): 0

COc1ccc(S(=O)(=O)n2cc(CNc3ccc(N4CCOCC4)cc3)cc2-c2ccc(OC)cc2OC)cc1 [Example 96]
IC50 (HeLa [1]): > 1000 nM
IC50 (Jurkat [2]): > 1000 nM
IC50 (Jily): > 1000 nM
IC50 (MRC5): > 1000 nM
Hoechst 33342 nuclear staining score, H460 ([5]; conc 0.1): 0
Hoechst 33342 nuclear staining score, H460 ([5]; conc 0.3): 0
Hoechst 33342 nuclear staining score, H460 ([5]; conc 1): 0
Hoechst 33342 nuclear staining score, H460 ([5]; conc 3): 0
Hoechst 33342 nuclear staining score, HeLa ([5]; conc 0.1): 0
Hoechst 33342 nuclear staining score, HeLa ([5]; conc 0.3): 0
Hoechst 33342 nuclear staining score, HeLa ([5]; conc 1): 0
Hoechst 33342 nuclear staining score, HeLa ([5]; conc 3): 0
Hoechst 33342 nuclear staining score, Jily ([5]; conc 0.1): 0
Hoechst 33342 nuclear staining score, Jily ([5]; conc 0.3): 0
Hoechst 33342 nuclear staining score, Jily ([5]; conc 1): 0
Hoechst 33342 nuclear staining score, Jily ([5]; conc 3): 1 (weak activity comprising less than 50% of the cells)
Hoechst 33342 nuclear staining score, Jurkat ([5]; conc 0.1): 0
Hoechst 33342 nuclear staining score, Jurkat ([5]; conc 0.3): 0
Hoechst 33342 nuclear staining score, Jurkat ([5]; conc 1): 0
Hoechst 33342 nuclear staining score, Jurkat ([5]; conc 3): 0
Hoechst 33342 nuclear staining score, MRC5 ([5]; conc 0.1): 0
Hoechst 33342 nuclear staining score, MRC5 ([5]; conc 0.3): 0
Hoechst 33342 nuclear staining score, MRC5 ([5]; conc 1): 0
Hoechst 33342 nuclear staining score, MRC5 ([5]; conc 3): 0
Hoechst 33342 nuclear staining score, PBLs ([5]; conc 0.1): 0
Hoechst 33342 nuclear staining score, PBLs ([5]; conc 0.3): 0
Hoechst 33342 nuclear staining score, PBLs ([5]; conc 1): 0
Hoechst 33342 nuclear staining score, PBLs ([5]; conc 3): 0

Cc1ccc(S(=O)(=O)n2cc(-c3cncc(C(N)=O)c3)cc2-c2cccs2)cc1 [Example 53]
IC50 (HeLa [1]): > 1000 nM
IC50 (Jurkat [2]): < 1000 nM
IC50 (MRC5): > 1000 nM
PI staining for cell cycle distribution, G2M (HeLa [3]): 2
PI staining for cell cycle distribution, subG1 (HeLa [3]): 0
PI staining for cell cycle distribution, G2M (Jurkat [4]): 1
PI staining for cell cycle distribution, subG1 (Jurkat [4]): 0
Hoechst 33342 nuclear staining score, H460 [5, 6]: 0
Hoechst 33342 nuclear staining score, H460 [5, 7]: 0
Hoechst 33342 nuclear staining score, H460 [5, 8]: 0
Hoechst 33342 nuclear staining score, H460 [5, 9]: 0
Hoechst 33342 nuclear staining score, HeLa [5, 6]: 0
Hoechst 33342 nuclear staining score, HeLa [5, 7]: 0
Hoechst 33342 nuclear staining score, HeLa [5, 8]: 0
Hoechst 33342 nuclear staining score, HeLa [5, 9]: 0
Hoechst 33342 nuclear staining score, Jily [5, 6]: 0
Hoechst 33342 nuclear staining score, Jily [5, 7]: 0
Hoechst 33342 nuclear staining score, Jily [5, 8]: 0
Hoechst 33342 nuclear staining score, Jily [5, 9]: 0
Hoechst 33342 nuclear staining score, Jurkat [5, 6]: 0
Hoechst 33342 nuclear staining score, Jurkat [5, 7]: 0
Hoechst 33342 nuclear staining score, Jurkat [5, 8]: 0
Hoechst 33342 nuclear staining score, Jurkat [5, 9]: 0
Hoechst 33342 nuclear staining score, MRC5 [5, 6]: 0
Hoechst 33342 nuclear staining score, MRC5 [5, 7]: 0
Hoechst 33342 nuclear staining score, MRC5 [5, 8]: 0
Hoechst 33342 nuclear staining score, MRC5 [5, 9]: 0
Hoechst 33342 nuclear staining score, PBLs [5, 6]: 0
Hoechst 33342 nuclear staining score, PBLs [5, 7]: 0
Hoechst 33342 nuclear staining score, PBLs [5, 8]: 0
Hoechst 33342 nuclear staining score, PBLs [5, 9]: 0

Reference: patent publication US7612064B2, “Sulfopyrroles” (Takeda Pharmaceutical Company Limited, priority 2003, dated 2009)
